Measurements from PMC11537999, “Identification of human pregnane X receptor antagonists utilizing a high-throughput screening platform” (Frontiers in Pharmacology, 2024).

Tests used:
CYP3A4 mRNA expression [1] = experiment: CYP3A4 mRNA expression by qRT-PCR in HepaRG cells treated with compound alone; type: cell-based, human; conditions: 24 h, compound at its IC70 concentration, vs DMSO
Protocol: (§1) Fully differentiated NoSpin™ HepaRG™ cells (Lonza, Walkersville, Maryland) were seeded into 12-well collagen-coated plates (Corning) at a density of 8 × 10^5 cells/well using Williams’ E medium (ThermoFisher) supplemented with HepaRG™ thawing and plating medium supplement (Lonza), 25 U/mL penicillin, and 25 μg/mL streptomycin (Invitrogen). The cells were then placed into a 37°C and 5% CO2 incubator for 3 days including a media change before treatment. Cells were then treated with the vehicle control (final concentration of 0.1% DMSO), the positive controls, or test compounds for 24 h before harvesting.
(§2) Total RNA was extracted from the cell lysate using an RNeasy Mini kit (Qiagen) according to the manufacturer’s instructions. RNA was reverse transcribed to cDNA using a High-Capacity RNA-to-cDNA kit (Applied Biosystems). CYP3A4 and CYP2B6 mRNA expression were both measured and normalized to the glyceraldehyde-3-phosphate dehydrogenase (GAPDH) housekeeping gene. Real-time PCR was completed using a QuantStudio Real-Time PCR system (Applied Biosystems) with TaqMan probes (CYP3A4 Assay ID: Hs00604506_m1, CYP2B6 Assay ID: Hs04183483_g1, GAPDH Assay ID: Hs99999905_m1, ThermoFisher Scientific, Waltham, MA). Following amplification, induction values were calculated using the equation: Fold = 2^−ΔΔCt, where ΔCt represents the difference in number of cycles required to reach the Ct threshold between CYP3A4 or CYP2B6 and GAPDH, and ΔΔCt represents the relative change in these differences between the control (DMSO) and treatment groups. Experimental data are expressed as a mean of triplicate values ±SD. Statistical analysis was performed using one-way analysis of variance with post hoc Dunnett’s analysis. The statistical significance values were set at p < 0.05 (*), p < 0.01 (**), and p < 0.001 (***).
To overcome the previous screening limitations, we used this more physiologically relevant cell line, HepaRG cells, to run follow-up studies with the PXR antagonists identified from the primary screen which used immortalized cell lines without a metabolic component. Using HepaRG cells, the 20 potential PXR antagonists were treated for 24 h and harvested for mRNA (Supplementary Figure S1).
FIGURE 3 HepaRG cells were treated with the top 20 most promising PXR antagonists identified from the high-throughput screen. […] The concentrations for the test compounds were the IC70 values from the original NPACT screen. Real-time PCR was used to analyze the mRNA expression of CYP3A4. Each bar represents the mean ± SD in triplicate. *, p < 0.05; **, p < 0.01.

CYP3A4 mRNA expression [2] = experiment: Co-treatment pharmacological assay: CYP3A4 mRNA by qRT-PCR in HepaRG cells co-treated with rifampicin; type: cell-based, human; conditions: for inhibition of CYP3A4 mRNA expression under rifampicin co-treatment (in words): IC50, IC70 or IC90 concentration + 5 μM rifampicin
Protocol: as §1, §2
As previously mentioned, HepG2 cells are not metabolically competent and therefore use of HepaRG cells or human primary hepatocytes is a better choice to confirm PXR antagonists. […]

SMILES	inhibition of CYP3A4 mRNA expression (in words) (CYP3A4 mRNA expression [1])	inhibition of CYP3A4 mRNA expression under rifampicin co-treatment (in words) (CYP3A4 mRNA expression [2])	CYP3A4 mRNA expression, average level (CYP3A4 mRNA expression [2]; 15 μM compound + 5 μM rifampicin, DMSO = 1)
CC(=O)O[C@H]1C[C@@]2(C)[C@@H](C[C@@H](O)[C@H]3[C@@]4(C)CC[C@@H](O)[C@@H](C)[C@@H]4CC[C@@]32C)/C1=C(\CCC=C(C)C)C(=O)O [fusidic acid]	significantly inhibited CYP3A4 mRNA expression	clear concentration dependent inhibition of CYP3A4 mRNA expression	–
COc1cc(-c2cn(C3CCc4c(F)cccc4N(CC(F)(F)F)C3=O)nn2)ccc1-n1cnc(C)c1 (centres unmarked) [GSM2]	significantly inhibited CYP3A4 mRNA expression	clear concentration dependent inhibition of CYP3A4 mRNA expression	0.6 fold
